Test results reported in ChEMBL document CHEMBL1147911, “Synthesis and evaluation of novel benzimidazole derivative [Bz-Im] and its radio/biological studies” (Bioorg Med Chem Lett, 2007).
Each block holds one compound with its values, some of them ahead of it.

Experiments:
[1] = target: T1, Cholecystokinin receptor type A (Rattus norvegicus, UniProt P30551); assay: Displacement of [125I](BH)CCK8 from rat CCK1 after 30 mins by receptor binding assay
T1 sequence (P30551 whole entry): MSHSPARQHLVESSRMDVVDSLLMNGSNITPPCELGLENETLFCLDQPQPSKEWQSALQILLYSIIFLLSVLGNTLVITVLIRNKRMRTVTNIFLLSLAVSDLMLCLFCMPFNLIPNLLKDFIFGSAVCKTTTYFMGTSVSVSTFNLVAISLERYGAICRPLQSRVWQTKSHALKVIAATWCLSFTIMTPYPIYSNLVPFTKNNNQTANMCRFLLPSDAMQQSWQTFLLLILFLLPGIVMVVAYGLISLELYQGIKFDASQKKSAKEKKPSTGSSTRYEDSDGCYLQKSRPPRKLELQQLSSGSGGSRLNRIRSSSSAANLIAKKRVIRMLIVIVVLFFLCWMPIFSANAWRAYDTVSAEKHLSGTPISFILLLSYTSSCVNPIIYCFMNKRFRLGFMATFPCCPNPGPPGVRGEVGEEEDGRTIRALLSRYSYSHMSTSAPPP

[2] = target: T2, Cholecystokinin receptor type A (Cavia porcellus, UniProt Q63931); assay: Displacement of [125I](BH)CCK8 from Guinea pig CCK1 after 30 mins by receptor binding assay
T2 sequence (Q63931 whole entry): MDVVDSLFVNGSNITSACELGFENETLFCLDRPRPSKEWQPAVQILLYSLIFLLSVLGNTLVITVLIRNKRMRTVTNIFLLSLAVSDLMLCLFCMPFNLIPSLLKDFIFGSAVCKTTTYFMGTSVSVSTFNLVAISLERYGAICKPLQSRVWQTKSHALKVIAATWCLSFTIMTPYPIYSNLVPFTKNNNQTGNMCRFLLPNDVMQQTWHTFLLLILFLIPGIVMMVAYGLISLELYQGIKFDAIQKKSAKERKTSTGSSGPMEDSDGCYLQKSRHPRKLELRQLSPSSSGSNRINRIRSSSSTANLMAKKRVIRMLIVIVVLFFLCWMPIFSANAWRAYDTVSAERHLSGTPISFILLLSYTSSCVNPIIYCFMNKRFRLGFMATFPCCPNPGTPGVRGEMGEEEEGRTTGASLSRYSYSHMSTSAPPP

Stomach [3] = assay: Biodistribution in Albino mouse stomach at 10 uCi after 6 hr; format: ADME, organism-based; conditions: in vivo
Spleen [4] = assay: Biodistribution in Albino mouse spleen at 10 uCi after 4 hr; format: ADME, organism-based; conditions: in vivo
Aspergillus flavus [5] = assay: Antifungal activity against Aspergillus flavus at 50 ug/ml after seven days by agar plate method; format: functional; conditions: 168 h
Blood [6] = assay: Biodistribution in Albino mouse blood at 10 uCi after 4 hr; format: ADME, organism-based; conditions: in vivo
Stomach [7] = assay: Biodistribution in Albino mouse stomach at 10 uCi after 4 hr; format: ADME, organism-based; conditions: in vivo
Stomach [8] = assay: Biodistribution in Albino mouse stomach at 10 uCi after 8 hr; format: ADME, organism-based; conditions: in vivo
Spleen [9] = assay: Biodistribution in Albino mouse spleen at 10 uCi after 2 hr; format: ADME, organism-based; conditions: in vivo
Kidney [10] = assay: Biodistribution in Albino mouse kidney at 10 uCi after 6 hr; format: ADME, organism-based; conditions: in vivo
Aspergillus niger [11] = assay: Antifungal activity against Aspergillus niger at 50 ug/ml after seven days by agar plate method; format: functional; conditions: 168 h
Blood [12] = assay: Biodistribution in Albino mouse blood at 10 uCi after 1 hr; format: ADME, organism-based; conditions: in vivo
Kidney [13] = assay: Biodistribution in Albino mouse kidney at 10 uCi after 8 hr; format: ADME, organism-based; conditions: in vivo
Kidney [14] = assay: Biodistribution in Albino mouse kidney at 10 uCi after 1 hr; format: ADME, organism-based; conditions: in vivo
Aspergillus flavus [15] = assay: Antifungal activity against Aspergillus flavus at 20 ug/ml after seven days by agar plate method; format: functional; conditions: 168 h
Stomach [16] = assay: Biodistribution in Albino mouse stomach at 10 uCi after 2 hr; format: ADME, organism-based; conditions: in vivo
Intestine [17] = assay: Biodistribution in Albino mouse intestine at 10 uCi after 8 hr; format: ADME, organism-based; conditions: in vivo
Liver [18] = assay: Biodistribution in Albino mouse liver at 10 uCi after 2 hr; format: ADME, organism-based; conditions: in vivo
Intestine [19] = assay: Biodistribution in Albino mouse intestine at 10 uCi after 2 hr; format: ADME, organism-based; conditions: in vivo
Spleen [20] = assay: Biodistribution in Albino mouse spleen at 10 uCi after 6 hr; format: ADME, organism-based; conditions: in vivo
Liver [21] = assay: Biodistribution in Albino mouse liver at 10 uCi after 6 hr; format: ADME, organism-based; conditions: in vivo
Blood [22] = assay: Biodistribution in Albino mouse blood at 10 uCi after 6 hr; format: ADME, organism-based; conditions: in vivo
Stomach [23] = assay: Biodistribution in Albino mouse stomach at 10 uCi after 1 hr; format: ADME, organism-based; conditions: in vivo
Heart [24] = assay: Biodistribution in Albino mouse heart at 10 uCi after 8 hr; format: ADME, organism-based; conditions: in vivo
Heart [25] = assay: Biodistribution in Albino mouse heart at 10 uCi after 1 hr; format: ADME, organism-based; conditions: in vivo
Spleen [26] = assay: Biodistribution in Albino mouse spleen at 10 uCi after 1 hr; format: ADME, organism-based; conditions: in vivo
Brain [27] = assay: Biodistribution in Albino mouse brain at 10 uCi after 8 hr; format: ADME, organism-based; conditions: in vivo
Aspergillus niger [28] = assay: Antifungal activity against Aspergillus niger at 20 ug/ml after seven days by agar plate method; format: functional; conditions: 168 h
Blood [29] = assay: Biodistribution in Albino mouse blood at 10 uCi after 8 hr; format: ADME, organism-based; conditions: in vivo
Liver [30] = assay: Biodistribution in Albino mouse liver at 10 uCi after 1 hr; format: ADME, organism-based; conditions: in vivo
Liver [31] = assay: Biodistribution in Albino mouse liver at 10 uCi after 4 hr; format: ADME, organism-based; conditions: in vivo
Liver [32] = assay: Biodistribution in Albino mouse liver at 10 uCi after 8 hr; format: ADME, organism-based; conditions: in vivo
Spleen [33] = assay: Biodistribution in Albino mouse spleen at 10 uCi after 8 hr; format: ADME, organism-based; conditions: in vivo
Brain [34] = assay: Biodistribution in Albino mouse brain at 10 uCi after 2 hr; format: ADME, organism-based; conditions: in vivo
Intestine [35] = assay: Biodistribution in Albino mouse intestine at 10 uCi after 6 hr; format: ADME, organism-based; conditions: in vivo
Blood [36] = assay: Biodistribution in Albino mouse blood at 10 uCi after 2 hr; format: ADME, organism-based; conditions: in vivo
Heart [37] = assay: Biodistribution in Albino mouse heart at 10 uCi after 6 hr; format: ADME, organism-based; conditions: in vivo
Aspergillus niger [38] = assay: Antifungal activity against Aspergillus niger at 10 ug/ml after seven days by agar plate method; format: functional; conditions: 168 h
Aspergillus flavus [39] = assay: Antifungal activity against Aspergillus flavus at 10 ug/ml after seven days by agar plate method; format: functional; conditions: 168 h
Heart [40] = assay: Biodistribution in Albino mouse heart at 10 uCi after 4 hr; format: ADME, organism-based; conditions: in vivo
Kidney [41] = assay: Biodistribution in Albino mouse kidney at 10 uCi after 2 hr; format: ADME, organism-based; conditions: in vivo
Brain [42] = assay: Biodistribution in Albino mouse brain at 10 uCi after 4 hr; format: ADME, organism-based; conditions: in vivo
Intestine [43] = assay: Biodistribution in Albino mouse intestine at 10 uCi after 1 hr; format: ADME, organism-based; conditions: in vivo
Brain [44] = assay: Biodistribution in Albino mouse brain at 10 uCi after 6 hr; format: ADME, organism-based; conditions: in vivo
Intestine [45] = assay: Biodistribution in Albino mouse intestine at 10 uCi after 4 hr; format: ADME, organism-based; conditions: in vivo
Kidney [46] = assay: Biodistribution in Albino mouse kidney at 10 uCi after 4 hr; format: ADME, organism-based; conditions: in vivo
Heart [47] = assay: Biodistribution in Albino mouse heart at 10 uCi after 2 hr; format: ADME, organism-based; conditions: in vivo

IC50 [1]: 0.197 µM
IC50 [2]: 16.4 µM
SMILES: O=C1c2ccccc2C(=O)N1Cc1c(O)ccc2c(/C=C/c3ccc(-c4ccccc4)cc3)cc3nc4ccccc4n3c12

Drug uptake (Stomach [3]): 7 % ID/g
Drug uptake (Spleen [4]): 14 % ID/g
Drug uptake (Blood [6]): 2 % ID/g
Drug uptake (Stomach [7]): 3 % ID/g
Drug uptake (Stomach [8]): 9.5 % ID/g
Drug uptake (Spleen [9]): 15 % ID/g
Drug uptake (Kidney [10]): 5 % ID/g
Drug uptake (Blood [12]): 3 % ID/g
Drug uptake (Kidney [13]): 5 % ID/g
Drug uptake (Kidney [14]): 5 % ID/g
Drug uptake (Stomach [16]): 2.5 % ID/g
Drug uptake (Intestine [17]): 3 % ID/g
Drug uptake (Liver [18]): 25 % ID/g
Drug uptake (Intestine [19]): 0.5 % ID/g
Drug uptake (Spleen [20]): 12 % ID/g
Drug uptake (Liver [21]): 15 % ID/g
Drug uptake (Blood [22]): 0.5 % ID/g
Drug uptake (Stomach [23]): 1 % ID/g
Drug uptake (Heart [24]): 0.2 % ID/g
Drug uptake (Heart [25]): 1 % ID/g
Drug uptake (Spleen [26]): 10 % ID/g
Drug uptake (Brain [27]): 1 % ID/g
Drug uptake (Blood [29]): 0.5 % ID/g
Drug uptake (Liver [30]): 18 % ID/g
Drug uptake (Liver [31]): 18 % ID/g
Drug uptake (Liver [32]): 15 % ID/g
Drug uptake (Spleen [33]): 11 % ID/g
IC50 [1]: 0.942 µM
Drug uptake (Brain [34]): 0.2 % ID/g
Drug uptake (Intestine [35]): 3 % ID/g
Drug uptake (Blood [36]): 2 % ID/g
Drug uptake (Heart [37]): 0.3 % ID/g
Drug uptake (Heart [40]): 0.3 % ID/g
Drug uptake (Kidney [41]): 7 % ID/g
Drug uptake (Brain [42]): 0.45 % ID/g
Drug uptake (Intestine [43]): 0.5 % ID/g
Drug uptake (Brain [44]): 1 % ID/g
IC50 [2]: 4.32 µM
Drug uptake (Intestine [45]): 0.2 % ID/g
Drug uptake (Kidney [46]): 2 % ID/g
Drug uptake (Heart [47]): 0.4 % ID/g
SMILES: O=C1c2ccccc2C(=O)N1Cc1c(O)ccc2c(/C=C/c3ccccc3)cc3nc4ccccc4n3c12
inhibition at 50 µg/mL (Aspergillus flavus [5]): 88.3%
inhibition at 50 µg/mL (Aspergillus niger [11]): 84.6%
inhibition at 20 µg/mL (Aspergillus flavus [15]): 76.7%
inhibition at 20 µg/mL (Aspergillus niger [28]): 76.8%
inhibition at 10 µg/mL (Aspergillus niger [38]): 60.3%
inhibition at 10 µg/mL (Aspergillus flavus [39]): 73.3%
